# According to ChEMBL document CHEMBL1817621, “SAR studies of acidic dual γ-secretase/PPARγ modulators” (Bioorg Med Chem, 2011):
# Activity calls are given as the source filed them. The calls are words filed in the database; no cut-off is given here.
# Tested on: CHO
# Assay: Cytotoxicity against CHO cells expressing human APP and wild type human presenilin-1 assessed as reduction of cell viability up to 40 uM after 24 hrs by Alamar blue assay
# Type: cell-based, Cricetulus griseus
# Details: chinese hamster
row,Compound,Activity
1,CCCCC(Cc1ccc(OCCc2ccccc2)c(OCCc2ccccc2)c1)C(=O)O (stereo unspecified),Non-toxic
2,CCCCC(Cc1cc(OCCc2ccccc2)ccc1OCCc1ccccc1)C(=O)O (stereo unspecified),Non-toxic
3,CCCCC(Oc1cc(OCCc2ccccc2)cc(OCCc2ccccc2)c1)C(=O)O (stereo unspecified),Non-toxic
4,CCCCC(Cc1cc(OCCc2ccccc2)cc(OCCc2ccccc2)c1)C(=O)O (stereo unspecified),Non-toxic

# Tested on: not listed separately
# Assay: Modulation of gamma-secretase expressed in CHO cells co-expressing human APP and wild type human presenilin-1 assessed as increase of amyloid beta38 production by ELISA
# Type: cell-based
# Details: not given
row,EC50,Compound
1,> 40 µM,CCCCC(Cc1ccc(OCCc2ccccc2)c(OCCc2ccccc2)c1)C(=O)O (stereo unspecified)
2,14.5 µM,CCCCC(Cc1cc(OCCc2ccccc2)ccc1OCCc1ccccc1)C(=O)O (stereo unspecified)
3,26.4 µM,CCCCC(Oc1cc(OCCc2ccccc2)cc(OCCc2ccccc2)c1)C(=O)O (stereo unspecified)
4,28.1 µM,CCCCC(Cc1cc(OCCc2ccccc2)cc(OCCc2ccccc2)c1)C(=O)O (stereo unspecified)

# Target: T1, Peroxisome proliferator-activated receptor alpha (Homo sapiens) (UniProt Q07869)
# T1 sequence (whole entry): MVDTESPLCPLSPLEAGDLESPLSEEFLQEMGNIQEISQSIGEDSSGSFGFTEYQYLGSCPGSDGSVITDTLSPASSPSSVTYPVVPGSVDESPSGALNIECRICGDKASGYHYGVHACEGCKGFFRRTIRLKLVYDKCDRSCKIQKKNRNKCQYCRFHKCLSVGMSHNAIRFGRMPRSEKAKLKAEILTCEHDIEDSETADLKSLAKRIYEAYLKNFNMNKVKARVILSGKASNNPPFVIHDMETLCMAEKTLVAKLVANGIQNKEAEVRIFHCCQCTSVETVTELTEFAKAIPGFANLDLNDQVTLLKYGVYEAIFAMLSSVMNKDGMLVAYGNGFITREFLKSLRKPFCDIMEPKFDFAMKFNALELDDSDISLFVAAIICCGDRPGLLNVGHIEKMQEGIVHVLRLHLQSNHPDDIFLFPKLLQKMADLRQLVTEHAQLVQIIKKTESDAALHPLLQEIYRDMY
# Assay: Modulation of human PPARalpha-LBD expressed in african green monkey COS7 cells co-transfected with Gal4 assessed as activation of transactivation activity at 10 uM by luciferase assay
# Type: cell-based
# Details: COS-7
row,Activity,Compound
1,inactive,CCCCC(Cc1ccc(OCCc2ccccc2)c(OCCc2ccccc2)c1)C(=O)O (stereo unspecified)
2,inactive,CCCCC(Cc1cc(OCCc2ccccc2)ccc1OCCc1ccccc1)C(=O)O (stereo unspecified)
3,inactive,CCCCC(Oc1cc(OCCc2ccccc2)cc(OCCc2ccccc2)c1)C(=O)O (stereo unspecified)
4,inactive,CCCCC(Cc1cc(OCCc2ccccc2)cc(OCCc2ccccc2)c1)C(=O)O (stereo unspecified)

# Target: T2, Prostaglandin G/H synthase 1 (Ovis aries) (UniProt P05979)
# T2 sequence (whole entry): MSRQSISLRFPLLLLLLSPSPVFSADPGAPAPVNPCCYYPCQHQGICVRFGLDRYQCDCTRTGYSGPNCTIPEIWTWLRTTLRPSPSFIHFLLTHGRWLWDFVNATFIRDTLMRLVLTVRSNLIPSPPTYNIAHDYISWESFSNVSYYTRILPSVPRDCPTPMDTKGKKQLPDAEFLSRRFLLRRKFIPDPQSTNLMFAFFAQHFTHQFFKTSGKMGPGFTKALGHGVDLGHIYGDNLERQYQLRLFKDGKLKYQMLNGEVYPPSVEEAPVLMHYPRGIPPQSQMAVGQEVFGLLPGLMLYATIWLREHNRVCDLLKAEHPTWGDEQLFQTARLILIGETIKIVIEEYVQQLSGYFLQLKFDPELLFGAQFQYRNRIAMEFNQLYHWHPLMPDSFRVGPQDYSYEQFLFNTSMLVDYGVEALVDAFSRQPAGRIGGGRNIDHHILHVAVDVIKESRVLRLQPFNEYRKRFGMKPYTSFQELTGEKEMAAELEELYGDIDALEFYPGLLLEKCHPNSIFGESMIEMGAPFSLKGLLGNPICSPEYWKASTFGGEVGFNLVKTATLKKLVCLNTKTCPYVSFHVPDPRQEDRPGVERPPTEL
# Assay: Inhibition of ovine COX-1 assessed as residual activity by measuring formation of 12-HHT from arachidonic acid at 10 uM by HPLC analysis
# Details: not given
row,Activity,Compound
1,95.8%,CCCCC(Cc1ccc(OCCc2ccccc2)c(OCCc2ccccc2)c1)C(=O)O (stereo unspecified)
2,63.8%,CCCCC(Cc1cc(OCCc2ccccc2)ccc1OCCc1ccccc1)C(=O)O (stereo unspecified)
3,71.6%,CCCCC(Oc1cc(OCCc2ccccc2)cc(OCCc2ccccc2)c1)C(=O)O (stereo unspecified)
4,78.7%,CCCCC(Cc1cc(OCCc2ccccc2)cc(OCCc2ccccc2)c1)C(=O)O (stereo unspecified)

# Target: T3, Peroxisome proliferator-activated receptor gamma (Homo sapiens, UniProt P37231)
# T3 sequence (P37231 whole entry): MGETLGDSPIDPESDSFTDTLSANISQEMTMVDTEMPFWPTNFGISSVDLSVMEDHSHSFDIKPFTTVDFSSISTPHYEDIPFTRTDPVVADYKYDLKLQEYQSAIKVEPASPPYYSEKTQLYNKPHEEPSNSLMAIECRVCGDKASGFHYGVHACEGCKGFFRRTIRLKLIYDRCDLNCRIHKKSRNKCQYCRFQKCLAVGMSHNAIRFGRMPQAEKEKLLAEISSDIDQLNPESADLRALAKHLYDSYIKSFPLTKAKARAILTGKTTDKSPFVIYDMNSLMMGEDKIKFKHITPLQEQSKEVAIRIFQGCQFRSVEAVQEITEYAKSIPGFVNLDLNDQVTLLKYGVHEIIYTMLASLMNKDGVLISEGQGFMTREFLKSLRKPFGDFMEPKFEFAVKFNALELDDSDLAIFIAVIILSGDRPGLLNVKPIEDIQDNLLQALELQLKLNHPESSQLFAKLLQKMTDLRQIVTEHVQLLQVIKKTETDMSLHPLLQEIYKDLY
# Assay: Modulation of human PPARgamma-LBD expressed in african green monkey COS7 cells co-transfected with Gal4 assessed as activation of transactivation activity by luciferase assay
# Type: cell-based, COS-7
# Details: not given
row,EC50,Compound
1,2.2 µM,CCCCC(Cc1ccc(OCCc2ccccc2)c(OCCc2ccccc2)c1)C(=O)O (stereo unspecified)
2,10.8 µM,CCCCC(Cc1cc(OCCc2ccccc2)ccc1OCCc1ccccc1)C(=O)O (stereo unspecified)
3,4.8 µM,CCCCC(Oc1cc(OCCc2ccccc2)cc(OCCc2ccccc2)c1)C(=O)O (stereo unspecified)
4,4.7 µM,CCCCC(Cc1cc(OCCc2ccccc2)cc(OCCc2ccccc2)c1)C(=O)O (stereo unspecified)

# Target: T4, Peroxisome proliferator-activated receptor delta (Homo sapiens) (UniProt Q03181)
# T4 sequence (whole entry): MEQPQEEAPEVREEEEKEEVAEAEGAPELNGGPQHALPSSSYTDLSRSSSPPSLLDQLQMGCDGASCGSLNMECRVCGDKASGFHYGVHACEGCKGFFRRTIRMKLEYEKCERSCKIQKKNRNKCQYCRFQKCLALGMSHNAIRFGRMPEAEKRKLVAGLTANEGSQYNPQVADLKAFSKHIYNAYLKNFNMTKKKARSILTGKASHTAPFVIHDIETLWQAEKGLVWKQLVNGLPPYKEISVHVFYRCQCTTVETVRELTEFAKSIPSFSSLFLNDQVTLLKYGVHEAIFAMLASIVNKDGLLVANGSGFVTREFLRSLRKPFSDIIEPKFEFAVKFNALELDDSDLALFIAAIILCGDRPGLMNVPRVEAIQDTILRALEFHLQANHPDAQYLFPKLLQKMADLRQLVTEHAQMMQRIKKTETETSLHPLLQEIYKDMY
# Assay: Modulation of human PPARdelta-LBD expressed in african green monkey COS7 cells co-transfected with Gal4 assessed as activation of transactivation activity at 10 uM by luciferase assay
# Type: cell-based
# Details: COS-7
row,Activity,Compound
1,inactive,CCCCC(Cc1ccc(OCCc2ccccc2)c(OCCc2ccccc2)c1)C(=O)O (stereo unspecified)
2,inactive,CCCCC(Cc1cc(OCCc2ccccc2)ccc1OCCc1ccccc1)C(=O)O (stereo unspecified)
3,inactive,CCCCC(Oc1cc(OCCc2ccccc2)cc(OCCc2ccccc2)c1)C(=O)O (stereo unspecified)
4,inactive,CCCCC(Cc1cc(OCCc2ccccc2)cc(OCCc2ccccc2)c1)C(=O)O (stereo unspecified)

# Tested on: not listed separately
# Assay: Modulation of gamma-secretase expressed in CHO cells co-expressing human APP and wild type human presenilin-1 assessed as inhibition of amyloid beta42 production by ELISA
# Type: cell-based
# Details: not given
row,IC50,Compound
1,> 40 µM,CCCCC(Cc1ccc(OCCc2ccccc2)c(OCCc2ccccc2)c1)C(=O)O (stereo unspecified)
2,19.1 µM,CCCCC(Cc1cc(OCCc2ccccc2)ccc1OCCc1ccccc1)C(=O)O (stereo unspecified)
3,33.7 µM,CCCCC(Oc1cc(OCCc2ccccc2)cc(OCCc2ccccc2)c1)C(=O)O (stereo unspecified)
4,38.4 µM,CCCCC(Cc1cc(OCCc2ccccc2)cc(OCCc2ccccc2)c1)C(=O)O (stereo unspecified)

# Target: T5, Peroxisome proliferator-activated receptor gamma (Homo sapiens) (UniProt P37231)
# T5 sequence (whole entry): T3 sequence (P37231 whole entry)
# Assay: Modulation of human PPARgamma-LBD expressed in african green monkey COS7 cells co-transfected with Gal4 assessed as activation of transactivation activity by luciferase assay relative to pioglitazone
# Type: cell-based
# Details: COS-7
row,Emax,Compound
1,100%,CCCCC(Cc1ccc(OCCc2ccccc2)c(OCCc2ccccc2)c1)C(=O)O (stereo unspecified)
2,97%,CCCCC(Cc1cc(OCCc2ccccc2)ccc1OCCc1ccccc1)C(=O)O (stereo unspecified)
3,46%,CCCCC(Oc1cc(OCCc2ccccc2)cc(OCCc2ccccc2)c1)C(=O)O (stereo unspecified)
4,71%,CCCCC(Cc1cc(OCCc2ccccc2)cc(OCCc2ccccc2)c1)C(=O)O (stereo unspecified)

# Target: T6, Prostaglandin G/H synthase 2 (Homo sapiens) (UniProt P35354)
# T6 sequence (whole entry): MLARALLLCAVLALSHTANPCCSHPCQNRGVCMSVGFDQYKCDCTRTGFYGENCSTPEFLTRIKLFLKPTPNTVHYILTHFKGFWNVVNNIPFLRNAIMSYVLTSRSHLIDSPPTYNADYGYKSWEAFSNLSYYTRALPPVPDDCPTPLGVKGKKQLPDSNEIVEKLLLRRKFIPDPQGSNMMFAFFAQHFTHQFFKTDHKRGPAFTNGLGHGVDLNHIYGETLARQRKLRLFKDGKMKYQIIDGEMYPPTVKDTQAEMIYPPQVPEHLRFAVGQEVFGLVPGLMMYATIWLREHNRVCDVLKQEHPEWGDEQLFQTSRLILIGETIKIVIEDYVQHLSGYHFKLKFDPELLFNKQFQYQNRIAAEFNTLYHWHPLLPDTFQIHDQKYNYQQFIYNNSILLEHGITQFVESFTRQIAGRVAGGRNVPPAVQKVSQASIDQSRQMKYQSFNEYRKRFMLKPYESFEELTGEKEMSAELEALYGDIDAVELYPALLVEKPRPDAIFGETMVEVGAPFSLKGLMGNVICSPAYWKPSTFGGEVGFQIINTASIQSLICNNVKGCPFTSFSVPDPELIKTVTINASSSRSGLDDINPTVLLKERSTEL
# Assay: Inhibition of human recombinant COX-2 assessed as residual activity by measuring formation of 12-HHT from arachidonic acid at 10 uM by HPLC analysis
# Details: not given
row,Activity,Compound
1,86.4%,CCCCC(Cc1ccc(OCCc2ccccc2)c(OCCc2ccccc2)c1)C(=O)O (stereo unspecified)
2,66.5%,CCCCC(Cc1cc(OCCc2ccccc2)ccc1OCCc1ccccc1)C(=O)O (stereo unspecified)
3,92.5%,CCCCC(Oc1cc(OCCc2ccccc2)cc(OCCc2ccccc2)c1)C(=O)O (stereo unspecified)
4,78.4%,CCCCC(Cc1cc(OCCc2ccccc2)cc(OCCc2ccccc2)c1)C(=O)O (stereo unspecified)
